# Read-outs that look alike come from different tables or passages of the source.
# Tests used:
# [1] = tested on: conversion of T cells into CD4+FoxP3+ Tregs; details: co-culture of DCs and naïve CD4+CD25− T cells; cited from earlier work
# PAN02 pancreatic cells = details: orally dosed, cited from earlier work
# [2] = target: T1, indoleamine 2,3-dioxygenase (IDO1) (Homo sapiens, UniProt P14902); test: PBMC IDOi assay (kynurenine by mass spectrometry); format: cell-based; details: IFN-γ and LPS stimulated human PBMC, 2 days, kynurenine detected by mass spectrometry; read-out: PBMC pIC50 (converted)
# Method: (§1) Brief descriptions of the cellular assays are provided following the table.
# (§2) Compounds of the present invention were tested via high-throughput cellular assays utilizing detection of kynurenine via mass spectrometry and cytotoxicity as end-points. For the mass spectrometry and cytotoxicity assays, human peripheral blood mononuclear cells (PBMC) (PB003F; AllCells®, Alameda, Calif.) were stimulated with human interferon-γ (IFN-γ) (Sigma-Aldrich Corporation, St. Louis, Mo.) and lipopolysaccharide from Salmonella minnesota (LPS) (Invivogen, San Diego, Calif.) to induce the expression of indoleamine 2,3-dioxygenase (IDO1). Compounds with IDO1 inhibitory properties decreased the amount of kynurenine produced by the cells via the tryptophan catabolic pathway. Cellular toxicity due to the effect of compound treatment was measured using CellTiter-Glo® reagent (CTG) (Promega Corporation, Madison, Wis.), which is based on luminescent detection of ATP, an indicator of metabolically active cells.
# (§3) In preparation for the assays, test compounds were serially diluted 3-fold in DMSO from a typical top concentration of 5 mM and plated at 0.5 μL in 384-well, polystyrene, clear bottom, tissue culture treated plates with lids (Greiner Bio-One, Kremsmünster, Austria) to generate 11-point dose response curves. Low control wells (0% kynurenine or 100% cytotoxicity) contained either 0.5 μL of DMSO in the presence of unstimulated (−IFN-γ/−LPS) PBMCs for the mass spectrometry assay or 0.5 μL of DMSO in the absence of cells for the cytotoxicity assay, and high control wells (100% kynurenine or 0% cytotoxicity) contained 0.5 μL of DMSO in the presence of stimulated (+IFN-γ/+LPS) PBMCs for both the mass spectrometry and cytotoxicity assays.
# Frozen stocks of PBMCs were washed and recovered in RPMI 1640 medium (Thermo Fisher Scientific, Inc., Waltham, Mass.) supplemented with 10% v/v heat-inactivated fetal bovine serum (FBS) (Thermo Fisher Scientific, Inc., Waltham, Mass.), and 1× penicillin-streptomycin antibiotic solution (Thermo Fisher Scientific, Inc., Waltham, Mass.). The cells were diluted to 1,000,000 cells/mL in the supplemented RPMI 1640 medium. 50 μL of either the cell suspension, for the mass spectrometry assay, or medium alone, for the cytotoxicity assay, were added to the low control wells, on the previously prepared 384-well compound plates, resulting in 50,000 cells/well or 0 cells/well respectively. IFN-γ and LPS were added to the remaining cell suspension at final concentrations of 100 ng/ml and 50 ng/ml respectively, and 50 μL of the stimulated cells were added to all remaining wells on the 384-well compound plates. The plates, with lids, were then placed in a 37° C., 5% CO2 humidified incubator for 2 days.
# Following incubation, the 384-well plates were removed from the incubator and allowed to equilibrate to room temperature for 30 minutes. For the cytotoxicity assay, CellTiter-Glo® was prepared according to the manufacturer's instructions, and 40 μL were added to each plate well. After a twenty minute incubation at room temperature, luminescence was read on an EnVision® Multilabel Reader (PerkinElmer Inc., Waltham, Mass.). For the mass spectrometry assay, 10 μL of supernatant from each well of the compound-treated plates were added to 40 μL of acetonitrile, containing 10 μM of an internal standard for normalization, in 384-well, polypropylene, V-bottom plates (Greiner Bio-One, Kremsmünster, Austria) to extract the organic analytes. Following centrifugation at 2000 rpm for 10 minutes, 10 μL from each well of the acetonitrile extraction plates were added to 90 μL of sterile, distilled H2O in 384-well, polypropylene, V-bottom plates for analysis of kynurenine and the internal standard on the RapidFire 300 (Agilent Technologies, Santa Clara, Calif.) and 4000 QTRAP MS (SCIEX, Framingham, Mass.). […]
# [3] = target: T1, indoleamine 2,3-dioxygenase (IDO1); test: HeLa IDOi assay (kynurenine by mass spectrometry); format: cell-based; design: human epithelial HeLa cells (CCL-2; host or cells: HeLa cells stimulated with human IFN-γ; details: IFN-γ stimulated HeLa cells, 2 days, kynurenine detected by mass spectrometry; read-out: HeLa pIC50 (converted)
# Method: as §1
# as §2, with “epithelial HeLa” for “peripheral blood mononuclear”, “(CCL-2; ATCC®, Manassas, Va.)” for “(PBMC) (PB003F; AllCells®, Alameda, Calif.)”, “Mo.)” for “Mo.) and lipopolysaccharide from Salmonella minnesota (LPS) (Invivogen, San Diego, Calif.)”
# as §3, with “(−IFN-γ) HeLa cells” for “(−IFN-γ/−LPS) PBMCs”, “(+IFN-γ) HeLa cells” for “(+IFN-γ/+LPS) PBMCs”
# Frozen stocks of HeLa cells were washed and recovered in DMEM high glucose medium with HEPES (Thermo Fisher Scientific, Inc., Waltham, Mass.) supplemented with 10% v/v certified fetal bovine serum (FBS) (Thermo Fisher Scientific, Inc., Waltham, Mass.), and 1× penicillin-streptomycin antibiotic solution (Thermo Fisher Scientific, Inc., Waltham, Mass.). The cells were diluted to 100,000 cells/mL in the supplemented DMEM medium. 50 μL of either the cell suspension, for the mass spectrometry assay, or medium alone, for the cytotoxicity assay, were added to the low control wells, on the previously prepared 384-well compound plates, resulting in 5,000 cells/well or 0 cells/well respectively. IFN-γ was added to the remaining cell suspension at a final concentration of 10 nM, and 50 μL of the stimulated cells were added to all remaining wells on the 384-well compound plates. The plates, with lids, were then placed in a 37° C., 5% CO2 humidified incubator for 2 days.
# Following incubation, the 384-well plates were removed from the incubator and allowed to equilibrate to room temperature for 30 minutes. For the cytotoxicity assay, CellTiter-Glo® was prepared according to the manufacturer's instructions, and 10 μL were added to each plate well. After a twenty minute incubation at room temperature, luminescence was read on an EnVision® Multilabel Reader (PerkinElmer Inc., Waltham, Mass.). For the mass spectrometry assay, 10 μL of supernatant from each well of the compound-treated plates were added to 40 μL of acetonitrile, containing 10 μM of an internal standard for normalization, in 384-well, polypropylene, V-bottom plates (Greiner Bio-One, Kremsmünster, Austria) to extract the organic analytes. Following centrifugation at 2000 rpm for 10 minutes, 10 μL from each well of the acetonitrile extraction plates were added to 90 μL of sterile, distilled H2O in 384-well, polypropylene, V-bottom plates for analysis of kynurenine and the internal standard on the RapidFire 300 (Agilent Technologies, Santa Clara, Calif.) and 4000 QTRAP MS (SCIEX, Framingham, Mass.). MS data were integrated using Agilent Technologies' RapidFire Integrator software, and data were normalized for analysis as a ratio of kynurenine to the internal standard. […]
# T1 sequence (P14902 whole entry): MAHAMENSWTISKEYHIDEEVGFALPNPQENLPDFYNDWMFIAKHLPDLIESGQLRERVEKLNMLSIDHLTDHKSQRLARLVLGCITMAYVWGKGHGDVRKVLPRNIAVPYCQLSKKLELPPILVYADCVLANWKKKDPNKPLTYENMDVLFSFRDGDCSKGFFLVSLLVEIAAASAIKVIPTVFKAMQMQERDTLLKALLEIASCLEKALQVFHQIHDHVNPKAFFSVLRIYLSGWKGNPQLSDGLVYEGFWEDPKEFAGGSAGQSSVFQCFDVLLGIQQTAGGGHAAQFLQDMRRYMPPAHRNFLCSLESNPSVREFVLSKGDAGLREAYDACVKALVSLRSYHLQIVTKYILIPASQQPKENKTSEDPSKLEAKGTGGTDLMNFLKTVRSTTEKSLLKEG
SMILES,conversion of T cells into CD4+FoxP3+ Tregs [1],"inhibition of tumor growth (PAN02 pancreatic cells; PAN02 syngeneic model, immunocompetent mice)",inhibition of tumor growth (PAN02 pancreatic cells; same tumor implanted in immune-deficient mice),IC50 [2] [nM],IC50 [3] [nM]
NS(=O)(=O)NCCNc1nonc1C(=NO)Nc1ccc(F)c(Br)c1 [INCB204360],blocked the conversion,significant dose-dependent inhibition of tumor growth,without effect,–,–
"Cc1cc(C)c(CC(=O)Nc2cc(-c3ccccc3-c3nn[nH]n3)ccc2SC(C)(C)C)c(C)c1 [Example 39, N-(4-(tert-butylthio)-2′-(2H-tetrazol-5-yl)-[1,1′-biphenyl]-3-yl)-2-mesitylacetamide]",–,–,–,1.58,2.51
"Cc1ccc(CC(=O)Nc2cc(-c3ccccc3-c3nnn(COC(=O)C(C)(C)C)n3)ccc2SC(C)(C)C)cc1 [Example 55, (5-(4′-(tert-Butylthio)-3′-(2-(p-tolyl)acetamido)-[1,1′-biphenyl]-2-yl)-2H-tetrazol-2-yl)methyl pivalate]",–,–,–,50.1,31.6
"Cc1ccc(CC(=O)Nc2cc(-c3ccccc3C(=O)O)ccc2SC(C)(C)C)cc1 [Example 4, 4′-(tert-Butylthio)-3′-(2-(p-tolyl)acetamido)-[1,1′-biphenyl]-2-carboxylic acid]",–,–,–,794,316
"CC(C)c1ccc(CC(=O)Nc2cc(-c3ccccc3-c3nn[nH]n3)ccc2SC(C)(C)C)cc1 [Example 27, N-(4-(tert-butylthio)-2′-(2H-tetrazol-5-yl)-[1,1′-biphenyl]-3-yl)-2-(4-isopropylphenyl)acetamide]",–,–,–,3.16,3.98
"Cc1ccc(CC(=O)Nc2cc(-c3ccccc3-c3nnn[nH]3)cnc2SC(C)(C)C)cc1 [Example 64, N-(5-(2-(1H-tetrazol-5-yl)phenyl)-2-(tert-butylthio)pyridin-3-yl)-2-(p-tolyl)acetamide]",–,–,–,50.1,63.1
"Cc1ccc(NC(=O)Nc2cc(-c3ccccc3-c3nn[nH]n3)ccc2SC(C)(C)C)cc1 [Example 13, 1-(4-(tert-Butylthio)-2′-(2H-tetrazol-5-yl)-[1,1′-biphenyl]-3-yl)-3-(p-tolyl)urea]",–,–,–,79.4,398
"Cc1ccc(CC(=O)Nc2cc(-c3ccccc3-c3nnnn3COC(=O)C(C)(C)C)ccc2SC(C)(C)C)cc1 [Example 56, (5-(4′-(tert-butylthio)-3′-(2-(p-tolyl)acetamido)-[1,1′-biphenyl]-2-yl)-1H-tetrazol-1-yl)methyl Pivalate]",–,–,–,20,31.6
Cc1ccc(CC(=O)Nc2cc(-c3ccccc3-c3nn[nH]n3)ccc2Sc2ccccc2)cc1 [Example 10],–,–,–,126,251
"Cc1ccc(CCC(=O)Nc2cc(-c3ccccc3-c3nn[nH]n3)ccc2SC(C)(C)C)cc1 [Example 37, N-(4-(tert-butylthio)-2′-(2H-tetrazol-5-yl)-[1,1′-biphenyl]-3-yl)-3-(p-tolyl)propanamide]",–,–,–,251,794
"Cc1ccc(CC(=O)Nc2cc(-c3ccccc3-c3nnnn3COP(=O)(O)O)ccc2SC(C)(C)C)cc1 [Example 52, (5-(4′-(tert-Butylthio)-3′-(2-(p-tolyl)acetamido)-[1,1′-biphenyl]-2-yl)-1H-tetrazol-1-yl)methyl Dihydrogen]",–,–,–,158,25.1
"CC(C)(C)Sc1ccc(-c2ccccc2-c2nn[nH]n2)cc1NC(=O)Cc1ccc(Cl)cc1 [Example 34, N-(4-(tert-butylthio)-2′-(2H-tetrazol-5-yl)-[1,1′-biphenyl]-3-yl)-2-(4-chlorophenyl)acetamide]",–,–,–,25.1,79.4
"Cc1ccc(CC(=O)Nc2cc(-c3ccccc3-c3nn[nH]n3)ccc2SC(C)(C)C)cc1 [Example 1, N-(4-(tert-butylthio)-2′-(2H-tetrazol-5-yl)-[1,1′-biphenyl]-3-yl)-2-(p-tolyl)acetamide]",–,–,–,12.6,15.8
"Cc1ccccc1CC(=O)Nc1cc(-c2ccccc2-c2nn[nH]n2)ccc1SC(C)(C)C [Example 19, N-(4-(tert-butylthio)-2′-(2H-tetrazol-5-yl)-[1,1′-biphenyl]-3-yl)-2-(o-tolyl)acetamide]",–,–,–,10,15.8
"CC(C)(C)Sc1ccc(-c2ccccc2-c2nn[nH]n2)cc1NC(=O)c1ccccc1 [Example 36, N-(4-(tert-butylthio)-2′-(2H-tetrazol-5-yl)-[1,1′-biphenyl]-3-yl)benzamide]",–,–,–,1260,2510

# Source: patent US10538495B2, “Modulators of indoleamine 2,3-dioxygenase” (GLAXOSMITHKLINE INTELLECTUAL PROPERTY DEVELOPMENT LIMITED, priority 2016, dated 2020)
